Results as given in patent US8309068B2, “Isolated polypeptides and methods of improving muscle strength” (Myostin Therapeutics Pty Ltd., priority 2006, dated 2012).
Where no end group is shown, it is not given here.

How the values were obtained:
mdx mice = assay: Mdx in vivo trial
Experimental: An in vivo trial was performed in which 4 week old mdx mice were injected 3× per week with 300 (6 μg/g) or saline (10 mice in each treatment) for 4 weeks. Body weights were recorded regularly and blood was collected for creatine kinase activity to assess the extent of muscle damage. Grip tests were performed as a measure of strength. After 4 weeks of treatment mice were culled and individual hind limb muscles collected for protein expression analysis—Pax7 & MyoD (satellite cell activation/myogenesis), and histology.
Protein was extracted from three hind limb muscles, biceps femoris, tibialis anterior and gastrocnemius. 15 μg of protein was separated on 4-12% SDS PAGE, transferred to nitrocellulose membrane and immunoprobed with Pax7 and MyoD.
Ten micron transverse sections were cut from the midbelly region of each m. gastrocnemius. Muscle sections were stained with haematoxylin and eosin (H & E) to visualise and measure areas of necrosis and regeneration. These areas were analysed using an Olympus BX50 microscope (Olympus, Tokyo, Japan), a SPOT-RT 4.01 camera and software (Diagnostic Instruments, Sterling Heights, Mich.). Areas were measured using Image-Pro Plus (Media Cybernetics, Silver Spring, Md.).
Blood was collected by tail-bleeding into 75 mm heparinised microhematocrit tubes. Tubes were centrifuged in a Micro-hematocrit centrifuge (Adams) for 5 minutes and then the plasma removed. The recovered plasma was centrifuged again at 2500×g for 5 minutes and then stored at −80° C. until analysis. Plasma was separated from the red blood cells within 2 hours of blood collection to minimise hemolysis. Creatine kinase activity was determined using CK N-acetyl-L-cysteine creatine kinase kit (Beckman Coulter) within 6 weeks of plasma collection. Muscle strength was assessed using a grip strength apparatus (MK-380S, Muromachi; Tokyo, Japan) at the beginning, mid-point and end of the trial. The maximum force exerted by a mouse while being pulled backward by the tail is recorded in Newtons. The mean of three grip tests for each mouse was calculated and the mean maximal force of 10 mice per group was determined.

[1] = tested on: Human skeletal muscle myoblasts; assay: Human myoblast proliferation assay; type: cell-based; conditions: 1, 5 or 10 μg/ml; 144 hours
Experimental: Human skeletal muscle myoblasts (Cambrex, USA) or primary ovine myoblasts were grown in Dulbecco's Modified Eagle Medium containing 20% FBS, 10% Horse serum and 0.5% chicken embryo extract according to the standard techniques. The myoblast proliferation assay was carried out in uncoated 96-well microtitre plates. Cell cultures were seeded at 2000 cells/well. Following a 24-hour attachment period, test media supplemented with 5% FCS containing either buffer as a control or different myostatin antagonists (300, 310 or 320) were added at 1, 5 and 10 μg/ml and cells were incubated for a further 144 hour period (for human cells) or 48 hours (for ovine cells). After the incubation period, proliferation was assessed using methylene blue photometric endpoint assay as previously described (Thomas et al, 2000).

C2C12 myoblasts = assay: C2C12 myoblast proliferation assay (methylene blue endpoint); type: cell-based, murine
Experimental: A polypeptide of the invention, or a fragment, variant or derivative thereof has the biological function of antagonising myostatin activity. To determine whether a polypeptide of the invention, or a fragment, variant or derivative thereof, is able to antagonise myostatin activity, such activity can be tested by growing myoblasts in the presence or absence (control) of a candidate polypeptide of the invention. […]
The myoblast proliferation assay was carried out in uncoated 96-well microtitre plates. C2C12 cultures were seeded at 1000 cells/well. Following a 16-hour attachment period, test media containing either recombinant wild type myostatin or different myostatin antagonists were added and cells were incubated for a further 48 or 72 hour period. For competition assay, wild type myostatin was competed with different concentrations of myostatin antagonists prior to the addition into the media. After the incubation period, proliferation was assessed using methylene blue photometric endpoint assay as previously described (Thomas et al, 2000).

[2] = tested on: skin burn in C56b1/6 mice; assay: In vivo skin burn trial (hydroxyproline assay); conditions: 6 μg/g SC day 1, 3, 5, 7 and 10, vs control
Experimental: C56b1/6 mice at ˜12 months of age were anesthetized, the skin at the back of the neck was shaved, and a red-hot metal rod (1.5 mm wide, 7 mm long) was applied to the exposed skin of the mice for 5 sec. The mice were injected subcutaneously with either saline or 300 myostatin antagonist at 6 μg/g of body weight at day 1, 3, 5, 7 and 10 after injury. The mice were allowed to heal for 5, 7, 14, 21, 28, 35 and 46 days, after which they were culled and the skin frozen in liquid nitrogen for hydroxyproline analysis.
After a burn injury in skin a hydroxyproline assay was performed to determine the amount of collagen deposits on the wound area. Hydroxyproline is present in collagen, and gives it a stable helical conformation. Therefore, measuring the amount of hydroxyproline present in a given tissue will determine the amount of collagen present in the tissue.

satellite cells = assay: Single muscle fibre satellite cell activation assay (PCNA labeling); type: cell-based, mice
Experimental: Single fibres were isolated as previously described Rosenblatt et al., (1995). Briefly, 1 and 24 month old wild-type mice were euthanized by CO2 gas followed by cervical dislocation. TA were dissected out and digested in 0.2% (w/v) type 1A collagenase (>260 CDU/mg, Sigma) in Dulbecco's modified Eagle medium (DMEM) (Invitrogen) for 60 minutes at 37° C. Muscles were transferred to DMEM +10% horse serum (HS) +0.5% chicken embryo extract (CEE) and fibres were separated by gentle trituration. Isolated fibres were transferred to 4 well chamber slides (Becton Dickinson) coated with 10% matrigel (Becton Dickinson) and fixed with 100% ice cold methanol for 10 minutes after culturing up to 72 hours at 37° C. in 5% CO2.
Proliferating Cell Nuclear Antigen (PCNA) is expressed in cells that are actively undergoing cell cycle but not in quiescent cells. […] However, upon activation, satellite cells are activated to express PCNA and regenerate the muscle by replenishing the muscle fibres. Thus PCNA is a very reliable antigen to marker for the activated satellite cells.
In order to determine the effect of myostatin antagonists on satellite cell activation, single muscle fibres from TA muscle of young (1 month) or old (24 month) wild type mice were cultured in presence of 5 μg/ml of myostatin antagonist 320, 310 or 300, in culture media for 24, 48 and 72 hours and fixed with methanol and washed in PBS. The fixed fibres were permeabilised in 0.5% TritonX-100 in PBS for 10 minutes, blocked in 10% normal goat serum and 0.35% carrageenan lambda in PBS for 30 minutes at room temperature then incubated with a 1:100 dilution of anti-PCNA antibody in blocker overnight. Primary antibody was detected using goat anti-mouse-alexa fluor 546 and fibres were counterstained with DAPI. PCNA positive activated satellite cells were counted under microscope and expressed as a percent of total myonuclei.

[3] = 6 μg/g 3x per week for 4 weeks, biceps femoris, tibialis anterior and gastrocnemius
[4] = m. gastrocnemius sections, H & E

myostatin antagonist 300: recombinant peptide, amino acids 267-300 of bovine myostatin, with N terminal and C terminal tag (SEQ ID NO: 6) (DFGLDCDEHSTESRCCRYPLTVDFEAFGWDWIIA; cysteine pairing not given here; also: N- and C-terminal tags; listed as Homo sapiens)
MyoD protein level (western blot) (mdx mice; [3]): substantial upregulation | Pax7 protein level (western blot) (mdx mice; [3]): substantial upregulation | change in plasma creatine kinase activity from commencement to completion of the trial (mdx mice; 4 weeks, vs saline): larger decrease | grip strength (mdx mice; after 4 weeks of treatment): significant increase | percentage necrotic area of muscle (mdx mice; [4]): Reduced Necrosis | percentage regenerating area of muscle (mdx mice; [4]): Increased Regeneration | proliferation capacity of human myoblasts compared to control [1]: significantly enhanced | proliferation capacity of myoblasts compared to control (C2C12 myoblasts; 1 μg/ml or 5 μg/ml over 48 or 72 hours): significantly enhanced | concentration at which the highest myoblast proliferation rate was observed (C2C12 myoblasts; 48 hour time point): 5 µg/mL | collagen on the wound area (hydroxyproline assay) [2]: tendency towards lower level of collagen | percentage of activated satellite cells (satellite cells; single fibres from old (2 year old) mice, 5 μg/ml, 24 or 48 hours): Significant increases | percentage of activated satellite cells, comparison among antagonists and times (satellite cells; single fibres from old (2 year old) mice, after 48 hours): greatest increase | number of satellite cells activated (PCNA positive nuclei) (satellite cells; single fibres from young (1 month old) wild type mice, 5 μg/ml, 24 or 48 hours): significant increase
